Tests used:
[1] = system: myelin reactive T cells in PBMCs; test: EAA with positivity by Variance Evaluation Method or CPM Variance Method (clinical trials); type: cell-based, human; settings: clinical trial population, RR-MS or CIS subjects
Source text: The predetermined value may also be calculated using a Variance Evaluation Method as follows: • 1. EAAs may be run on a given patient population (minimum of 120 assays from 120 unique subjects) • 2. A “negative population” may be created by averaging all SI values<2.5 • 3. The Standard Deviation (SD) may be calculated for each peptide • 4. The following for each peptide may be then be calculated: • a. Average+1SD • b. Average+2SD • c. Average+3SD • 5. The following SIs may be considered above the predetermined value: • a. SI greater than or equal to the average+3SD • b. Any SI greater than or equal to 2.5
The predetermined value may also be evaluated using a Counts per Minute (CPM) Variance Method. This algorithm may set a comprehensive cutoff for all peptides within a given assay. It may be calculated as follows: • 1. EAAs may be run and the CPM for all control (media only, no antigen) wells averaged. • 2. The SD for CPM of the control wells may then be calculated. • 3. The following may then be calculated for the control wells: • a. Average+1SD • b. Average+2SD • c. Average+3SD • 4. Any peptide with an average CPM greater than or equal to the average+3SD of the control wells may be considered above the predetermined value.
Any peptide, either analyzed in an individual well or as averaged over wells run in triplicate, with an SI≧2.5, an SI≧average+3SD by the Variance Evaluation Method, or an SI≧average+3SD by the CPM variance method may be considered above the predetermined value, which may indicate a T cell(s) positive for reactivity to a peptide.
The peptides of Example 3 have been tested in 429 EAAs in clinical trials as follows. […] Pre-Vaccine EAAs have 158 positive out of 387 assays (40.8%), with Relapse Remitting MS patients (RRMS) showing 150 positive of 368 assays (40.8%), and Clinically Isolated Syndrome (CIS) patients showing 8 positive of 19 assays (42.1%).
Over the course of 6 months a study was conducted with 120 subjects meeting the criteria for the clinical trial.
The above mentioned population of subjects was evaluated by EAA using the Variance Evaluation Method and CPM Variance Method as described above, and deemed eligible for vaccine production. Of the 120 attempts to manufacture vaccine, there were 2 shipping failures (blood was not received within our stated criteria), 1 culture was lost to contamination and 5 samples arrived with low cell volume/yield. Of the remaining 112 subjects, vaccine was successfully generated in 89 subjects, with 22 still in production (98.9% of eligible samples, 92.5% of all samples completed). From this, a positive EAA was deemed predictive of the ability to manufacture a vaccine to therapeutic dose by methods disclosed herein.

myelin-reactive T cells = test: Growth of myelin reactive T cell lines with low stimulation indices; type: cell-based, human
Source text: Using the algorithms described above, statistically significant SIs as low as 1.3 have been observed and therefore should be able grow in response to antigen. To verify this ability, 5 cell lines across two patients are shown with an SI<2.0. The results are shown in Table 12 and FIG. 24, which indicate growth of these cell lines with only peptide antigen stimulation and common T cell growth factors.
PBMC for subject 1042 were run in the EAA, and […] were positive, including PLPm18 with an SI of 1.8, PLPm26 with an SI of 2.5 and PLPm28 with an SI of 2.5. […] PBMC for subject 1014 were run in the EAA, and 4 mixes were positive, including MBPm14 with an SI of 1.7, PLPm17 with an SI of 1.7, PLPm28 with an SI of 2.2 and MOGm6 with an SI of 1.9. […]
PBMCs were isolated via density gradient centrifugation from peripheral blood obtained through venipuncture into ACD-1 anticoagulant. PBMCs were plated at 2.5E+06 cells/well in 24 well plates. Antigen in the form of 16mer peptides identified in the EAA were added at a final concentration of 20 ug/ml. Interluekin-2 (IL-2) was added at a final concentration of 100 U/ml starting at 48 hours and IL-2 was added at the same concentration with each feeding or splitting of wells. Peptide restimulation in the presence of antigen presenting cells (APCs-autologous PBMCs irradiated at 3500 rad) was done at days 7, 14 and 21. Interleukin-15 (IL-15) was added at a final concentration of 5 ng/ml-20 ng/ml (lot specific) starting at day 14 and continued through the remainder of the culture period. Cells lines were all harvested by day 35 and had achieved expansions of 3.0-8.2 fold.

Row | Substance | # of Subjects (frequency of identification) [1] | % of Subjects (frequency of identification) [1] [%] | Fold Expansion (myelin-reactive T cells; subject 1014, Day 0) | Viable Cell Count, Count/well (myelin-reactive T cells; subject 1014, Day 0) | Viable Cell Count, Total Cells (myelin-reactive T cells; subject 1014, Day 0) | Fold Expansion (myelin-reactive T cells; subject 1014, Day 17) | Viable Cell Count, Count/well (myelin-reactive T cells; subject 1014, Day 17) | Viable Cell Count, Total Cells (myelin-reactive T cells; subject 1014, Day 17) | Fold Expansion (myelin-reactive T cells; subject 1014, Day 19) | Viable Cell Count, Count/well (myelin-reactive T cells; subject 1014, Day 19) | Viable Cell Count, Total Cells (myelin-reactive T cells; subject 1014, Day 19) | Fold Expansion (myelin-reactive T cells; subject 1014, Day 28) | Viable Cell Count, Count/well (myelin-reactive T cells; subject 1014, Day 28) | Viable Cell Count, Total Cells (myelin-reactive T cells; subject 1014, Day 28) | Fold Expansion (myelin-reactive T cells; subject 1014, Day 33) | Viable Cell Count, Count/well (myelin-reactive T cells; subject 1014, Day 33) | Viable Cell Count, Total Cells (myelin-reactive T cells; subject 1014, Day 33) | Fold Expansion (myelin-reactive T cells; subject 1014, Day 35) | Viable Cell Count, Count/well (myelin-reactive T cells; subject 1014, Day 35) | Viable Cell Count, Total Cells (myelin-reactive T cells; subject 1014, Day 35) | other results
1 | PLPm28: mix of PLP 55 and PLP 56 (chain 1 GKVCGSNLLSICKTAE; chain 2 GSNLLSICKTAEFQMT) | 6 | 5.0 | 1.0 | 2.50E+06 | 2.25E+07 | 0.9 | 3.09E+06 | 2.78E+07 | 1.4 | 2.41E+06 | 4.34E+07 | 2.8 | 2.81E+06 | 8.43E+07 | 5.2 | 5.17E+06 | 1.55E+08 | 5.3 | 5.33E+06 | 1.60E+08 | Fold Expansion (myelin-reactive T cells; subject 1042, Day 0): 1.0; Viable Cell Count, Count/well (myelin-reactive T cells; subject 1042, Day 0): 2.50E+06; Viable Cell Count, Total Cells (myelin-reactive T cells; subject 1042, Day 0): 3.00E+07; Fold Expansion (myelin-reactive T cells; subject 1042, Day 14): 0.6; Viable Cell Count, Count/well (myelin-reactive T cells; subject 1042, Day 14): 1.56E+06; Viable Cell Count, Total Cells (myelin-reactive T cells; subject 1042, Day 14): 1.87E+07; Fold Expansion (myelin-reactive T cells; subject 1042, Day 19): 1.5; Viable Cell Count, Count/well (myelin-reactive T cells; subject 1042, Day 19): 3.82E+06; Viable Cell Count, Total Cells (myelin-reactive T cells; subject 1042, Day 19): 4.58E+07; Fold Expansion (myelin-reactive T cells; subject 1042, Day 26): 3.5; Viable Cell Count, Count/well (myelin-reactive T cells; subject 1042, Day 26): 4.34E+06; Viable Cell Count, Total Cells (myelin-reactive T cells; subject 1042, Day 26): 1.04E+08; Fold Expansion (myelin-reactive T cells; subject 1042, Day 33): 7.4; Viable Cell Count, Count/well (myelin-reactive T cells; subject 1042, Day 33): 4.61E+06; Viable Cell Count, Total Cells (myelin-reactive T cells; subject 1042, Day 33): 2.21E+08; Fold Expansion (myelin-reactive T cells; subject 1042, Day 35): 8.2; Viable Cell Count, Count/well (myelin-reactive T cells; subject 1042, Day 35): 5.15E+06; Viable Cell Count, Total Cells (myelin-reactive T cells; subject 1042, Day 35): 2.47E+08
2 | PLPm17: mix of PLP 33 and PLP 34 (chain 1 QHQAHSLERVCHCLGK; chain 2 HSLERVCHCLGKWLGH) | 14 | 11.8 | 1.0 | 2.50E+06 | 2.25E+07 | 0.7 | 2.34E+06 | 2.11E+07 | 1.2 | 3.85E+06 | 3.47E+07 | 3.5 | 4.77E+06 | 1.05E+08 | 2.9 | 3.89E+06 | 8.56E+07 | 4.7 | 4.73E+06 | 1.42E+08 | 
3 | PLPm18: mix of PLP 35 and PLP 36 (chain 1 RVCHCLGKWLGHPDKF; chain 2 CLGKWLGHPDKFVGIT) | 10 | 8.4 |  |  |  |  |  |  |  |  |  |  |  |  |  |  |  |  |  |  | Fold Expansion (myelin-reactive T cells; subject 1042, Day 0): 1.0; Viable Cell Count, Count/well (myelin-reactive T cells; subject 1042, Day 0): 2.50E+06; Viable Cell Count, Total Cells (myelin-reactive T cells; subject 1042, Day 0): 3.00E+07; Fold Expansion (myelin-reactive T cells; subject 1042, Day 14): 0.4; Viable Cell Count, Count/well (myelin-reactive T cells; subject 1042, Day 14): 9.60E+05; Viable Cell Count, Total Cells (myelin-reactive T cells; subject 1042, Day 14): 1.15E+07; Fold Expansion (myelin-reactive T cells; subject 1042, Day 19): 0.8; Viable Cell Count, Count/well (myelin-reactive T cells; subject 1042, Day 19): 1.97E+06; Viable Cell Count, Total Cells (myelin-reactive T cells; subject 1042, Day 19): 2.36E+07; Fold Expansion (myelin-reactive T cells; subject 1042, Day 26): 1.2; Viable Cell Count, Count/well (myelin-reactive T cells; subject 1042, Day 26): 1.50E+06; Viable Cell Count, Total Cells (myelin-reactive T cells; subject 1042, Day 26): 3.60E+07; Fold Expansion (myelin-reactive T cells; subject 1042, Day 33): 3.0; Viable Cell Count, Count/well (myelin-reactive T cells; subject 1042, Day 33): 3.76E+06; Viable Cell Count, Total Cells (myelin-reactive T cells; subject 1042, Day 33): 9.02E+07; Fold Expansion (myelin-reactive T cells; subject 1042, Day 35): 3.0; Viable Cell Count, Count/well (myelin-reactive T cells; subject 1042, Day 35): 3.74E+06; Viable Cell Count, Total Cells (myelin-reactive T cells; subject 1042, Day 35): 8.98E+07
4 | MOGm6: mix of MOG 11 and MOG 12 (chain 1 RPPFSRVVHLYRNGKD; chain 2 SRVVHLYRNGKDQDGD) | 4 | 3.4 | 1.3 | 2.50E+06 | 3.00E+07 | 0.7 | 2.18E+06 | 1.96E+07 | 1.3 | 4.27E+06 | 3.84E+07 | 4.1 | 4.35E+06 | 1.22E+08 | 4.4 | 4.71E+06 | 1.32E+08 | 3.7 | 3.93E+06 | 1.10E+08 | 
5 | PLPm26: mix of PLP 51 and PLP 52 (chain 1 CADARMYGVLPWNAFP; chain 2 RMYGVLPWNAFPGKVC) | 28 | 23.5 |  |  |  |  |  |  |  |  |  |  |  |  |  |  |  |  |  |  | Fold Expansion (myelin-reactive T cells; subject 1042, Day 0): 1.0; Viable Cell Count, Count/well (myelin-reactive T cells; subject 1042, Day 0): 2.50E+06; Viable Cell Count, Total Cells (myelin-reactive T cells; subject 1042, Day 0): 3.00E+07; Fold Expansion (myelin-reactive T cells; subject 1042, Day 14): 0.6; Viable Cell Count, Count/well (myelin-reactive T cells; subject 1042, Day 14): 1.50E+06; Viable Cell Count, Total Cells (myelin-reactive T cells; subject 1042, Day 14): 1.80E+07; Fold Expansion (myelin-reactive T cells; subject 1042, Day 19): 1.0; Viable Cell Count, Count/well (myelin-reactive T cells; subject 1042, Day 19): 2.40E+06; Viable Cell Count, Total Cells (myelin-reactive T cells; subject 1042, Day 19): 2.88E+07; Fold Expansion (myelin-reactive T cells; subject 1042, Day 26): 3.0; Viable Cell Count, Count/well (myelin-reactive T cells; subject 1042, Day 26): 3.73E+06; Viable Cell Count, Total Cells (myelin-reactive T cells; subject 1042, Day 26): 8.95E+07; Fold Expansion (myelin-reactive T cells; subject 1042, Day 33): 4.2; Viable Cell Count, Count/well (myelin-reactive T cells; subject 1042, Day 33): 2.61E+06; Viable Cell Count, Total Cells (myelin-reactive T cells; subject 1042, Day 33): 1.25E+08; Fold Expansion (myelin-reactive T cells; subject 1042, Day 35): 5.7; Viable Cell Count, Count/well (myelin-reactive T cells; subject 1042, Day 35): 3.54E+06; Viable Cell Count, Total Cells (myelin-reactive T cells; subject 1042, Day 35): 1.70E+08

Source: patent US20100003228A1, “T-CELL VACCINE” (priority 2006, published 2010)
